{"source": "BindingDB's records for patent US10774052", "about": "(Celgene CAR LLC; Sanofi, 2020)", "molecular_target": "Fibroblast growth factor receptor 4 (Homo sapiens, UniProt P22455)", "sequence (P22455 whole entry)": "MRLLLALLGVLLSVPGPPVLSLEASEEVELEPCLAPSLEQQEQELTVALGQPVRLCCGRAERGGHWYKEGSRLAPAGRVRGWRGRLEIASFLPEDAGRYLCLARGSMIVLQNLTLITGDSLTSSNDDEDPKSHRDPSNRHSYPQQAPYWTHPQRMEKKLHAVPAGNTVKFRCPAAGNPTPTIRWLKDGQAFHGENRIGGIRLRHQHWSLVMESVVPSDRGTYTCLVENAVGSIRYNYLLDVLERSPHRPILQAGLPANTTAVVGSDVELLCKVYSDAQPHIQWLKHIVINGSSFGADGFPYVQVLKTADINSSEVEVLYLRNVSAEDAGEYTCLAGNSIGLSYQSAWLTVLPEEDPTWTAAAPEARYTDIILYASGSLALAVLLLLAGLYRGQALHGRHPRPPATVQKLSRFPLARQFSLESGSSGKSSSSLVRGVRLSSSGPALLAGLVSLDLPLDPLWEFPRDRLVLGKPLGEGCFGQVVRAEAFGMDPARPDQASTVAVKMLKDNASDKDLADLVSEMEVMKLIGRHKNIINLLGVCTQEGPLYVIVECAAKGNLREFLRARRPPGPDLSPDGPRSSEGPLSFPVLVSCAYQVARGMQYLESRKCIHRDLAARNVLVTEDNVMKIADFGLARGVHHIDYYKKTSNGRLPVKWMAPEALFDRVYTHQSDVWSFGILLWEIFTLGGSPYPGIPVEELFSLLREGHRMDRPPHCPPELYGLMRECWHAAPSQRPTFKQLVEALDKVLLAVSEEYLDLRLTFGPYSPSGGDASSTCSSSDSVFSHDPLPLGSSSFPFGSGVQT", "experiment": "Omnia Assay Protocol for Potency Assessment Against (method a)", "procedure": "A solution of 1.4×ATP (AS001A) and 5× Tyr-Sox conjugated peptide substrate (KNZ3101) were prepared in 1× kinase reaction buffer consisting of 20 mM Tris, pH 7.5, 5 mM MgCl2, 1 mM EGTA, 5 mM β-glycerophosphate, 5% glycerol (10× stock, KB002A) and 0.2 mM DTT (DS001A). […] The serially diluted compounds were prepared on a Tecan EV0100. A second addition of 10 μl of Tyr-Sox FGFR4 substrate was added to each well and the kinase reactions were started with the addition of 35 μL of 1.4×ATP. The reactions were monitored every 71 seconds for 240 minutes at λex360/λem485 in a Synergy plate reader from BioTek (Winooski, Vt.)."}
{"compound": "C=CC(=O)Nc1cc(C2=CCN(CC)CC2)ccc1Nc1ncc2c(n1)N(CC)C(=O)N(c1cc(OC)cc(OC)c1)C2", "note": "[US10774052, Compound I-56]", "values": [{"measurement": "IC50", "value": "< 100", "unit": "nM"}]}
